ChEMBL document CHEMBL1201862, “PubChem BioAssay data set” (2004)
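Step 1: Grow cells in 96-well plates. Step 2: Expose to compound for 48 hours at 5 concentrations. Step 3: Interpolate endpoints linearly; if unreached, use highest concentration. The concentration for 50% growth inhibition is given as GI50.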 The source made the active and inactive calls. No stated cut-off is given here; in the data, active = GI50 up to about 1.1 µM and inactive = higher.

Assays:
Assay in all cases: inhibition of tumour cell growth, NCI panel, 48 h
[1] = test system: 786-0
[2] = test system: ACHN
[3] = test system: BT-549
[4] = test system: CAKI-1
[5] = test system: COLO 205
[6] = test system: DU-145
[7] = test system: Hs-578T
[8] = test system: IGROV-1
[9] = test system: K562
[10] = test system: M14
[11] = test system: MDA-N
[12] = test system: Malme-3M
[13] = test system: RPMI-8226
[14] = test system: SF-295
[15] = test system: SK-MEL-5
[16] = test system: SNB-75
[17] = test system: UACC-257
[18] = test system: UACC-62
[19] = test system: UO-31
[20] = test system: DLD-1

SMILES | GI50 [1] | GI50 [2] | GI50 [3] | GI50 [4] | GI50 [5] | GI50 [6] | GI50 [7] | GI50 [8] | GI50 [9] | GI50 [10] | GI50 [11] | GI50 [12] | GI50 [13] | GI50 [14] | GI50 [15] | GI50 [16] | GI50 [17] | GI50 [18] | GI50 [19] | GI50 [20]
C/C(=N\O)c1ccc(Nc2c3ccccc3nc3occc23)cc1 | 0.51 µM (active) | 0.302 µM (active) | 0.366 µM (active) | 0.231 µM (active) | 0.156 µM (active) | 1.05 µM (active) | 0.352 µM (active) | 0.231 µM (active) | 0.174 µM (active) | 0.236 µM (active) | 0.0847 µM (active) | 11.5 µM (inactive) | 0.207 µM (active) | 0.151 µM (active) | 0.222 µM (active) | 0.662 µM (active) | 7.26 µM (inactive) | 0.228 µM (active) | 3.49 µM (inactive) | 
CCOC(=O)c1cc2ncccc2c2ccccc12 | > 100 µM (inactive) | > 100 µM (inactive) | > 100 µM (inactive) | > 100 µM (inactive) | > 100 µM (inactive) | > 100 µM (inactive) | > 100 µM (inactive) | > 100 µM (inactive) | > 100 µM (inactive) | > 100 µM (inactive) | > 100 µM (inactive) | > 100 µM (inactive) | > 100 µM (inactive) | > 100 µM (inactive) | > 100 µM (inactive) | > 100 µM (inactive) | > 100 µM (inactive) | > 100 µM (inactive) | > 100 µM (inactive) | 
Cn1c(CBr)nc2c1C(=O)c1nc(CBr)[nH]c(=O)c1C2=O | > 100 µM (inactive) | > 100 µM (inactive) |  | > 100 µM (inactive) | > 100 µM (inactive) |  |  | > 100 µM (inactive) | > 100 µM (inactive) | > 100 µM (inactive) |  |  | 53 µM (inactive) | > 100 µM (inactive) | > 100 µM (inactive) |  |  | > 100 µM (inactive) | > 100 µM (inactive) | > 100 µM (inactive)
CN1CCN(C(=O)CCNC(=O)Cc2ccc(C(=O)c3ccccc3)cc2)CC1 | > 100 µM (inactive) | > 100 µM (inactive) | 64.3 µM (inactive) | > 100 µM (inactive) | 74 µM (inactive) | > 100 µM (inactive) | > 100 µM (inactive) | > 100 µM (inactive) | 27.9 µM (inactive) | > 100 µM (inactive) | 15.5 µM (inactive) | > 100 µM (inactive) | > 100 µM (inactive) | > 100 µM (inactive) | 71.6 µM (inactive) | > 100 µM (inactive) | > 100 µM (inactive) | > 100 µM (inactive) | > 100 µM (inactive) | 
Cc1ccc(S(=O)(=O)NNC(=O)c2cc(C)c(C)cc2N)cc1 | > 100 µM (inactive) | > 100 µM (inactive) | > 100 µM (inactive) | > 100 µM (inactive) | > 100 µM (inactive) | > 100 µM (inactive) | 84.1 µM (inactive) | > 100 µM (inactive) | > 100 µM (inactive) | > 10 µM (inactive) | > 100 µM (inactive) | > 100 µM (inactive) | > 100 µM (inactive) | > 100 µM (inactive) | > 100 µM (inactive) | > 100 µM (inactive) | > 100 µM (inactive) | > 100 µM (inactive) | > 100 µM (inactive) | 
CCCNC(=S)N/N=C(\C)c1ccc(S(=O)(=O)N(C)c2ccccc2)cc1 | 19.3 µM (inactive) | 24.7 µM (inactive) | > 100 µM (inactive) | 24.2 µM (inactive) | > 100 µM (inactive) | > 78.5 µM (inactive) | 3.64 µM (inactive) | 22.1 µM (inactive) | > 100 µM (inactive) | > 29.1 µM (inactive) | > 100 µM (inactive) | > 100 µM (inactive) | > 31.6 µM (inactive) | 18.3 µM (inactive) | > 100 µM (inactive) | 17.9 µM (inactive) | > 100 µM (inactive) | > 100 µM (inactive) | > 100 µM (inactive) | 
Cc1cc(S(=O)(=O)Nc2nc3ccccc3n2-c2ccccc2)c(S)cc1Cl | > 100 µM (inactive) | > 100 µM (inactive) | > 100 µM (inactive) | > 100 µM (inactive) | > 100 µM (inactive) | > 100 µM (inactive) | > 100 µM (inactive) | > 100 µM (inactive) | > 100 µM (inactive) | > 100 µM (inactive) | 87.5 µM (inactive) | > 100 µM (inactive) | > 100 µM (inactive) | 44.4 µM (inactive) | 50.6 µM (inactive) | > 100 µM (inactive) | > 100 µM (inactive) | > 100 µM (inactive) | > 100 µM (inactive) | 
OCC[N+]12CCCN1CCC2 | > 100 µM (inactive) | > 100 µM (inactive) |  | > 100 µM (inactive) | > 100 µM (inactive) |  |  | > 100 µM (inactive) | > 100 µM (inactive) | > 100 µM (inactive) |  | > 100 µM (inactive) |  | > 100 µM (inactive) | > 100 µM (inactive) | 61.7 µM (inactive) | > 100 µM (inactive) | > 100 µM (inactive) | > 100 µM (inactive) | > 100 µM (inactive)
N#C/C(=C1\SC(/N=N/c2ccc(Cl)cc2)C(=O)N1c1ccccc1)c1nc2ccccc2[nH]1 (centres undefined) | 13.7 µM (inactive) | 25.5 µM (inactive) |  | 48.4 µM (inactive) | 25.2 µM (inactive) |  |  |  | 14.1 µM (inactive) | 20.1 µM (inactive) |  | 28.4 µM (inactive) |  | 18.5 µM (inactive) | 35 µM (inactive) | 25.9 µM (inactive) | 27.3 µM (inactive) | 31.4 µM (inactive) | 19.8 µM (inactive) | > 100 µM (inactive)
Clc1cc(OC23CC4CC(CC(C4)C2)C3)nc(Cl)n1 | > 100 µM (inactive) | > 100 µM (inactive) | > 100 µM (inactive) | 1.94 µM (inactive) | 56.6 µM (inactive) | 55.7 µM (inactive) | 22.8 µM (inactive) | 27.2 µM (inactive) | 21.9 µM (inactive) | 29.9 µM (inactive) | 50.6 µM (inactive) | > 100 µM (inactive) | 37.9 µM (inactive) | > 100 µM (inactive) | 38.8 µM (inactive) | 64.6 µM (inactive) | 39 µM (inactive) | 52.4 µM (inactive) | 25.4 µM (inactive) | 
CCCCc1ccc(Nc2nc(Cl)c3ncn(COCCOC(C)=O)c3n2)cc1 | 16 µM (inactive) | 17.5 µM (inactive) | 16.5 µM (inactive) | 1.89 µM (inactive) | 23.5 µM (inactive) | 16 µM (inactive) | 21.7 µM (inactive) | 15.7 µM (inactive) | 6.04 µM (inactive) | 18 µM (inactive) | 18.8 µM (inactive) | 17.3 µM (inactive) | 18.2 µM (inactive) | 17.4 µM (inactive) | 16.7 µM (inactive) | 24.5 µM (inactive) | 19.8 µM (inactive) | 17.3 µM (inactive) | 16 µM (inactive) | 
COc1cc(/C=C/c2ccc(OC(C)=O)cc2)cc(OC)c1OC | 25.4 µM (inactive) | 15.5 µM (inactive) |  | 27.9 µM (inactive) | 27.8 µM (inactive) |  |  | 32.4 µM (inactive) | 27.1 µM (inactive) | 27.9 µM (inactive) |  | 26 µM (inactive) | 19.1 µM (inactive) | 26.6 µM (inactive) | 18.6 µM (inactive) |  | 33.4 µM (inactive) | 15.4 µM (inactive) | 21.1 µM (inactive) | 32.3 µM (inactive)
